# Compound: COc1cc2nc(N3CCCN(C)CC3)nc(NC3CCN(Cc4ccccc4)CC3)c2cc1OC
# Assay: relative viability (nuclei count vs DMSO), 5 days (fraction); higher = more cells survive
# Conditions: 0.2 µM
# Outline: (§1)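 Viability was defined as treated-well nuclei divided by vehicle-well nuclei, with the median taken over replicate plates. Cells from lung cancer lines sat overnight at 37 °C in 1536-well plates, received five √10-spaced library-drug doses by pinning on vehicle-anchored plates, and grew 5 days without medium change before one-step fixation, permeabilisation and Hoechst staining, 4× imaging and MetaXpress nuclear counts. Only plates with control CV under 25% and at least one doubling were kept.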
row,Cell Line,relative viability
1,NCI-H1651,0.974
2,EPLC-272H,0.918
3,NCI-H2228,0.9
4,NCI-H1792,0.821
5,NCI-H1355,0.891
6,NCI-H3122,0.932
7,NCI-H1437,0.983
8,NCI-H1755,0.974
9,NCI-H2023,0.949
10,HCC-15,0.985
11,NCI-H1793,0.86
12,PC-14,0.97
13,EKVX,0.953
14,LC-2-ad,0.929
15,NCI-H1563,0.974
16,NCI-H1944,1.01
17,NCI-H1975,0.974
18,RERF-LC-KJ,0.995
19,ABC-1,0.924
20,NCI-H358,0.918
21,NCI-H650,0.973
22,PC-3 [JPC-3],1.06

# Same assay, conditions: 0.6325 µM
row,Cell Line,relative viability
1,NCI-H1299,1.03
2,NCI-H647,1.06
3,CAL-12T,0.964
4,NCI-H1651,0.983
5,EPLC-272H,1
6,NCI-H2228,1.12
7,NCI-H1792,1.06
8,NCI-H1355,0.992
9,NCI-H3122,0.959
10,NCI-H1437,0.992
11,NCI-H1755,0.957
12,NCI-H2023,0.995
13,HCC-15,0.977
14,NCI-H1793,0.959
15,PC-14,1.05
16,EKVX,1.04
17,LC-2-ad,1.05
18,NCI-H1563,0.963
19,NCI-H1944,1
20,NCI-H1975,0.999
21,RERF-LC-KJ,0.977
22,ABC-1,1.12
23,NCI-H358,1.03
24,NCI-H650,0.935
25,PC-3 [JPC-3],1.02

# Same assay, conditions: 2 µM
row,Cell Line,relative viability
1,NCI-H1299,1.06
2,NCI-H647,1.04
3,CAL-12T,1.02
4,NCI-H1651,1.02
5,EPLC-272H,1.2
6,NCI-H2228,1.07
7,NCI-H1792,0.952
8,NCI-H1355,1
9,NCI-H3122,1.04
10,NCI-H1437,1.06
11,NCI-H1755,0.939
12,NCI-H2023,0.93
13,HCC-15,1.06
14,NCI-H1793,0.863
15,PC-14,0.977
16,EKVX,0.962
17,LC-2-ad,1.09
18,NCI-H1563,0.967
19,NCI-H1944,0.745
20,NCI-H1975,1.15
21,RERF-LC-KJ,1.04
22,ABC-1,1
23,NCI-H358,0.939
24,NCI-H650,1.09
25,PC-3 [JPC-3],1.06

# Same assay, conditions: 6.325 µM
row,Cell Line,relative viability
1,NCI-H1299,0.97
2,NCI-H647,0.764
3,CAL-12T,0.933
4,NCI-H1651,1.03
5,EPLC-272H,0.783
6,NCI-H2228,0.753
7,NCI-H1792,1.11
8,NCI-H1355,0.95
9,NCI-H3122,0.998
10,NCI-H1437,0.99
11,NCI-H1755,0.935
12,NCI-H2023,0.516
13,HCC-15,0.862
14,NCI-H1793,0.819
15,PC-14,0.475
16,EKVX,0.954
17,LC-2-ad,0.955
18,NCI-H1563,0.966
19,NCI-H1944,0.902
20,NCI-H1975,1
21,RERF-LC-KJ,0.912
22,ABC-1,0.926
23,NCI-H358,0.684
24,NCI-H650,0.862
25,PC-3 [JPC-3],0.959

# Compound: Cc1cc([C@@H](C)Nc2ccccc2C(=O)O)c2nc(N3CCOCC3)cc(=O)n2c1 [AZD6482]
# Assay: as above
# Conditions: 0.08 µM
# Outline: as §1
row,Cell Line,relative viability
1,NCI-H1299,0.998
2,NCI-H647,0.797
3,CAL-12T,0.959
4,NCI-H1651,0.897
5,EPLC-272H,0.778
6,NCI-H2228,0.745
7,NCI-H1792,0.753
8,NCI-H1355,0.872
9,NCI-H3122,1
10,NCI-H1437,1.04
11,NCI-H1755,0.957
12,NCI-H2023,0.923
13,HCC-15,1.03
